According to PMC9960633, “Novel Silver Complexes Based on Phosphanes and Ester Derivatives of Bis(pyrazol-1-yl)acetate Ligands Targeting TrxR: New Promising Chemotherapeutic Tools Relevant to SCLC Management” (International Journal of Molecular Sciences, 2023):

How the values were obtained:
[1] = system: HCT-15; test: MTT cytotoxicity, 2D culture, colon carcinoma; assay type: cell-based, human; details: HCT-15, 72 h, MTT test
Description: (§1) The Ag(I) complexes 3–5 and the corresponding uncoordinated ligands 1 and 2 were evaluated for their cytotoxic activity against various human cancer cell lines representative of different solid tumors. In particular, the in-house cancer cell panel contained examples of human colon (HCT-15), pancreatic (PSN-1), cervical (A431), breast (MDA-MB-231) and ovarian (2008) carcinoma as well as of SCLC (U1285). For comparison purposes, the cytotoxicity of the reference metal-based chemotherapeutic drug cisplatin was assessed under the same experimental conditions.
(§2) Ag(I) complexes and the corresponding uncoordinated ligands were dissolved in DMSO just before the experiment, and a calculated amount of drug solution was added to the cell growth medium to a final solvent concentration of 0.5%, which had no detectable effects on cell viability. Cisplatin was dissolved in 0.9% sodium chloride solution. MTT (3-(4,5-dimethylthiazol-2-yl)-2,5-diphenyltetrazolium bromide) and cisplatin were obtained from Sigma Chemical Co, St. Louis, MO, USA.
(§3) Human SCLC (U1285), breast (MDA-MB-231), colon (HCT-15), and pancreatic (PSN-1) carcinoma cell lines were obtained by American Type Culture Collection (ATCC, Rockville, MD, USA). A431 are human cervical carcinoma cells kindly provided by Professor F. Zunino (Division of Experimental Oncology B, Istituto Nazionale dei Tumori, Milan, Italy). The 2008 cells and the cisplatin-resistant variant, C13* cells, are human ovarian adenocarcinoma cell lines that were kindly provided by Professor G. Marverti (Department of Biomedical Science of Modena University, Modena, Italy). Cell lines were maintained in the logarithmic phase at 37 °C in a 5% carbon dioxide atmosphere using the following culture media containing 10% fetal calf serum (EuroClone, Milan, Italy), antibiotics (50 units/mL penicillin and 50 μg/mL streptomycin) and 2 mM l-glutamine: (i) RPMI-1640 medium (EuroClone, Milan, Italy) for HCT-15, A431, PSN-1, U1285, 2008 and C13* cells; (ii) DMEM (EuroClone, Milan, Italy) for MDA-MB-231 cells.
(§4) The growth inhibitory effect toward tumor cells was evaluated by means of MTT assay. Briefly, 3–8 × 10^3 cells/well, dependent upon the growth characteristics of the cell line, were seeded in 96-well microplates in growth medium (100 μL). After 24 h, the medium was removed and replaced with a fresh one containing the compound to be studied at the appropriate concentration. Triplicate cultures were established for each treatment. After 72 h, each well was treated with 10 μL of a 5 mg/mL MTT saline solution, and following 5 h of incubation, 100 μL of a sodium dodecyl sulfate (SDS) solution in HCl 0.01 M was added. After overnight incubation, cell growth inhibition was detected by measuring the absorbance of each well at 570 nm using a Bio-Rad 680 microplate reader. Mean absorbance for each drug dose was expressed as a percentage of the control untreated well absorbance and plotted vs. drug concentration. IC50 values, the drug concentrations that reduce the mean absorbance at 570 nm to 50% of those in the untreated control wells, were calculated by the four-parameter logistic (4-PL) model. Evaluation was based on means from at least four independent experiments.

[2] = system: PSN-1; test: MTT cytotoxicity, 2D culture, pancreatic carcinoma; assay type: cell-based; details: Homo sapiens, PSN1; PSN-1, 72 h, MTT test
Description: as §1, §2, §3
The growth inhibitory effect toward tumor cells was evaluated by means of MTT assay. Briefly, 3–8 × 10^3 cells/well, dependent upon the growth characteristics of the cell line, were seeded in 96-well microplates in growth medium (100 μL). After 24 h, the medium was removed and replaced with a fresh one containing the compound to be studied at the appropriate concentration. Triplicate cultures were established for each treatment. […] After overnight incubation, cell growth inhibition was detected by measuring the absorbance of each well at 570 nm using a Bio-Rad 680 microplate reader. Mean absorbance for each drug dose was expressed as a percentage of the control untreated well absorbance and plotted vs. drug concentration. […]

[3] = system: A431; test: MTT cytotoxicity, 2D culture, cervical carcinoma; assay type: cell-based, human; details: A431, 72 h, MTT test
Description: as §1, §2, §3, §4

[4] = system: U1285; test: MTT cytotoxicity, 2D culture, SCLC; assay type: cell-based, human; details: U1285, 72 h, MTT test
Description: as §1, §2, §3, §4

[5] = system: MDA-MB-231; test: MTT cytotoxicity, 2D culture, breast carcinoma; assay type: cell-based, human; details: MDA-MB-231, 72 h, MTT test
Description: as §1, §2, §3, §4

[6] = system: 2008; test: MTT cytotoxicity, 2D culture, ovarian carcinoma; assay type: cell-based, human; details: 2008, 72 h, MTT test
Description: as §1, §2, §3, §4

[7] = system: C13* cells; test: MTT cytotoxicity, cisplatin-resistant ovarian adenocarcinoma; assay type: cell-based, human; details: 72 h, MTT test
Description: The antiproliferative activity of the Ag(I) complexes 3–5 was also investigated in an additional cell line selected for its resistance to cisplatin, the human ovarian adenocarcinoma C13* cells. These cells were suitably selected after a cisplatin chronic treatment and are characterized by several mechanisms accounting for their resistance to cisplatin; these include (i) a reduced intracellular drug accumulation, (ii) high cellular levels of glutathione and metallothioneins, (iii) the enhanced repair of platinum-DNA adducts, and (iv) an overexpression of the Trx system.
Cytotoxicity was assessed after 72 h of drug treatment by MTT test, and the IC50 and RF values (RF = resistance factor, defined as the ratio of the IC50 of resistant cells over the IC50 of sensitive ones) are reported in Table 1.
as §3, §4

[8] = system: HEK293 cells; test: MTT cytotoxicity, non-cancerous cells; assay type: cell-based; details: Homo sapiens, 72 h, MTT test
Description: One of the main drawbacks of chemotherapeutic drugs is the possible toxic effect toward non-cancerous cells, and we measured the cytotoxicity of Ag(I) complexes against non-cancerous HEK293 cells (see Table 1). For all Ag(I) complexes, calculated IC50 values were higher than those obtained on average against tumor cells, thus indicating for this class of metal complexes a slightly preferential cytotoxicity against human cancer cells.
as §4

[9] = system: U1285 cancer cell spheroids; test: 3D spheroid cytotoxicity, acid phosphatase (APH) assay; assay type: cell-based, human; details: 72 h
Description: The in vitro antitumor activity of the newly developed Ag(I) derivatives was also assayed in 3D cell culture models of SCLC cells. Even if the 2D cell cultures are the most employed assays for in vitro screening due to the low cost, simplicity and reliability, two-dimensional methods are unable to reproduce the properties of in vivo solid tumors. In contrast, 3D cell cultures are much more efficient in closely mimicking the heterogeneity and complexity of the tumor mass and therefore are more predictive for in vivo results than conventional 2D cell cultures. On these bases, we tested the activity of the Ag(I) complexes on spheroids obtained from U1285 cells, which were proven to be highly sensitive to their in vitro antitumor activity. SCLC spheroids were treated with the investigated compounds for 72 h, and cell viability was assessed by means of the acid phosphatase (APH) assay.
Spheroids from U1285 cells (3 × 10^3 cells/well) were treated for 72 h with increasing concentrations of tested compounds. The growth inhibitory effect was evaluated by means of the APH assay. IC50 values were calculated from the dose–survival curves by the four-parameter logistic model (p < 0.05). S.D. = standard deviation.
Spheroid cultures were obtained by seeding 2.5 × 10^3 U1285 cancer cells/well in a round-bottom non-treated tissue culture 96-well plate (Greiner Bio-one, Kremsmünster, Austria) in phenol red free RPMI-1640 medium (Sigma Chemical Co., St. Louis, MO, USA) containing 10% fetal calf serum and supplemented with 20% methyl cellulose stock solution.
An APH modified assay was used for determining cell viability in 3D spheroids, as previously described. […] The inhibition of the cell growth induced by the tested complexes was detected by measuring the absorbance of each well at 405 nm, using a Bio-Rad 680 microplate reader. Mean absorbance for each drug dose was expressed as a percentage of the control untreated well absorbance (T/C) and plotted vs. drug concentration. […]

[10] = biological target: T1, TrxR (Homo sapiens, UniProt Q16881); test: TrxR activity in treated U1285 cells; assay type: cell-based; details: 2 µM, 24 h
T1 construct: hampering TrxR activity when tested in U1285 cell cultures; endogenous in cells; host or cells: U1285 human small-cell lung carcinoma cells
T1 sequence (Q16881 151-649 limits assumed): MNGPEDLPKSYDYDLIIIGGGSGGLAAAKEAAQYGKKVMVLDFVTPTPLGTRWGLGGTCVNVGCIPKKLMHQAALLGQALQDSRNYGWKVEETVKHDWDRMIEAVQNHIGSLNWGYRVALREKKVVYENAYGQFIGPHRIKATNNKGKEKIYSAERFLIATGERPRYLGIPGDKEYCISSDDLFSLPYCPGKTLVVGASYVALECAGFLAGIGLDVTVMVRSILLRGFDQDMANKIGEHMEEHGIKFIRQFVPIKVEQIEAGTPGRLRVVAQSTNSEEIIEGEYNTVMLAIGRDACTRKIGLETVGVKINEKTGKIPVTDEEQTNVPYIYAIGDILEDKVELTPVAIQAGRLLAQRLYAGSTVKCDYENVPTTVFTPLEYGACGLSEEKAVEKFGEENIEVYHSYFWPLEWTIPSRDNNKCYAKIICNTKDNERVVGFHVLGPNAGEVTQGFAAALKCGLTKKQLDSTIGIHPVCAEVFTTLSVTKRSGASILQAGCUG
Description: On the other hand, Ag(I) compounds 4 and 5 were as effective or even better than auranofin in hampering TrxR activity when tested in U1285 cell cultures.
At the end of incubation time, cells were collected, washed with ice-cold PBS and centrifuged at […]. Each sample was then lysed with RIPA buffer modified as follows: 150 mM NaCl, 50 mM Tris–HCl, 1% Triton X-100, 1% SDS, 1% DOC, 1 mM NaF, 1 mM EDTA, and immediately before use, an anti-protease cocktail (Roche, Basel, Switzerland) containing PMSF was added. Samples were tested for TrxR activity as above described.
Figure 2 TrxR inhibition. (A) TrxR1 activity was assayed by measuring NADPH-dependent reduction of DTNB at 412 nm as described in the Experimental Section. (a) 50% inhibition concentration (IC50), Error bars indicate S.D. (B) U1285 cells were incubated for 24 h with the tested compounds (2 µM). Subsequently, cells were washed twice with PBS and lysed. TrxR activity was tested by measuring NADPH-dependent reduction of DTNB at 412 nm. Error bars indicate SD. * p < 0.05; ** p < 0.01.

| Compound | IC50 ([1]; Homo sapiens) [µM] | IC50 [2] [µM] | IC50 ([3]; Homo sapiens, A-431) [µM] | IC50 ([4]; Homo sapiens) [µM] | IC50 ([5]; Homo sapiens) [µM] | IC50 ([6]; Homo sapiens) [µM] | IC50 ([7]; Homo sapiens) [µM] | IC50 [8] [µM] | IC50 ([9]; Homo sapiens) [µM] | decrease of TrxR enzyme activity [10] [%] | IC50 [1] [µM] | IC50 [3] [µM] | IC50 [4] [µM] | IC50 [5] [µM] | IC50 [6] [µM] | IC50 [7] [µM] | IC50 [9] [µM] |
| --- | --- | --- | --- | --- | --- | --- | --- | --- | --- | --- | --- | --- | --- | --- | --- | --- | --- |
| C1N2CN3CN1CP(C2)C3 [PTA, 1,3,5-triaza-7-phosphaadamantane, reference compound] | > 100 | > 100 | > 100 | > 100 | > 100 | > 100 | > 100 | > 100 |  |  |  |  |  |  |  |  |  |
| COC(=O)C(n1cccn1)n1cccn1 [ligand 1, [HC(pz)2COOCH3]] | > 50 | > 50 | > 50 | > 50 | > 50 | > 50 | > 50 | > 50 | > 100 |  |  |  |  |  |  |  |  |
| CC(=O)OC[C@H]1O[C@@H]([S-])[C@H](OC(C)=O)[C@@H](OC(C)=O)[C@@H]1OC(C)=O.CCP(CC)CC.[Au+] [auranofin, reference compound] |  |  |  |  |  |  |  |  |  | 62 |  |  |  |  |  |  |  |
| COC(=O)C(n1nc(C)cc1C)n1nc(C)cc1C [ligand 2, [HC(pz^Me2)2COOCH3]] | > 50 | > 50 | > 50 | > 50 | > 50 | > 50 | > 50 | > 50 | > 100 |  |  |  |  |  |  |  |  |
| c1ccc(P(c2ccccc2)c2ccccc2)cc1 [PPh3, triphenylphosphine, reference compound] | > 50 | > 50 | 47.5 ± 1.1 | > 50 | > 50 | > 50 | > 50 | > 100 |  |  |  |  |  |  |  |  |  |
| N.N.[Cl][Pt][Cl] [cisplatin, reference compound] |  |  |  |  |  |  |  |  |  |  | 15.3 ± 2.6 | 2.1 ± 0.9 | 9.6 ± 1.2 | 30.5 ± 2.6 | 2.2 ± 1 | 30.5 ± 2.6 | 65.4 ± 1.4 |
